# Assay results: patent publication US8835485B2, “Prevention and treatment of sarcopenia” (PsiOxus Therapeutics Limited, priority 2009, dated 2014)
# Columns and labels:
# healthy subjects = settings: cited from earlier work
# 5-HT1a receptor = molecular target: T1, 5-HT1a receptor (Homo sapiens, UniProt P08908); settings: functional tests; cited from earlier work
# T1 sequence (P08908 1-422): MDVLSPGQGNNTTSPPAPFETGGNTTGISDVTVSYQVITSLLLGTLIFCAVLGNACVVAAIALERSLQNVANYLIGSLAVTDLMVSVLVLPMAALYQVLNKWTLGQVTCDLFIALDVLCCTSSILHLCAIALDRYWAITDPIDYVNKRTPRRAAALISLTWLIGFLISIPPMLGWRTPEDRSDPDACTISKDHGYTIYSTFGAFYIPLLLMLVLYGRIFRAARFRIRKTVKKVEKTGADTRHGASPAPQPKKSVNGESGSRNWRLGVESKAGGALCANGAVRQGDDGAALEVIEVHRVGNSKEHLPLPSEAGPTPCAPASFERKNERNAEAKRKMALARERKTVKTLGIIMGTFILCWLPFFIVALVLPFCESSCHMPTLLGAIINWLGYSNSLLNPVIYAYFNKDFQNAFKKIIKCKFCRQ
# [1] = test system: Old, healthy, male Wistar Han rats; assay: S-Pindolol in old (19 month) rats, 28 days: body weight, lean mass, organ weights; type: in vivo, rat; settings: 3 mg/kg/d
# Description: Old, healthy, male Wistar Han rats (age 19 month, at the start of the experiment) were housed in groups of two to three per cage under standard laboratory conditions. Animals were randomized to receive either 3 mg/kg/d S-Pindolol/kg/d (n=8), or placebo (n=14) once daily per gavage for 28 days. Body composition (lean mass) of the animals was analyzed using the EchoMRI-700 system (Echo Medical Systems, Houston, Tex., USA) before treatment, once per week during the study and at the end of the study. Body weight was recorded before treatment, once per week during the study and at the end of study. Organ weights were recorded at the end of study. One tibialis muscle per animals was dried at 60° C. for 48 h.
# [2] = test system: Young, healthy, male Wistar Han rats; assay: S-Pindolol in young healthy rats, 16 days: body weight, lean mass, organ weights; type: in vivo, rat; settings: for Gastrocnemius organ weight at the end of the study: gavage once daily, placebo 1234 ± 30; for Soleus organ weight at the end of the study / EDL organ weight at the end of the study / Tibialis organ weight at the end of the study: gavage; for Soleus organ weight at the end of the study: placebo 97 ± 2; for EDL organ weight at the end of the study: placebo 104 ± 3; for Tibialis organ weight at the end of the study: placebo 447 ± 9; for EDL percent increase in weight / Soleus percent increase in weight: versus placebo
# Description: Young, healthy, male Wistar Han rats (201.8±2.4 g) were housed in groups of two to three per cage under standard conditions. Animals were randomized to receive either 0.3 mg S-Pindolol/kg/d (n=5), 3 mg S-Pindolol/kg/d (n=5) or placebo (n=16) once daily per gavage for 16 days. Body composition (lean mass) of the animals was analyzed using the EchoMRI-700 system (Echo Medical Systems, Houston, Tex., USA) before treatment and at the end of the study. Body weight was recorded before treatment and at the end of study. Organ weights were recorded at the end of study.
smiles,measurement,setting,value
CC(C)NCC(O)COc1cccc2[nH]ccc12 (racemic) [racemic pindolol],Effect on diastolic blood pressure,"healthy subjects; healthy subjects, similar dose",reducing
CC(C)NC[C@@H](O)COc1cccc2ccccc12 [(R)-propranolol],Block of the suppressant effects of 5-HT1a agonists on dorsal raphe neuronal firing,5-HT1a receptor,not
"CC(C)NC[C@H](O)COc1cccc2ccccc12 [(S)-propranolol, (S)-1-isopropylamino-3-(1-naphthyloxy)-2-propanol]",Block of the suppressant effects of 5-HT1a agonists on dorsal raphe neuronal firing,5-HT1a receptor,blocked
"CC(C)NC[C@H](O)COc1cccc2[nH]ccc12 [S-Pindolol, S-(−)-1-(1H-indol-4-yloxy)-3-(1-methylethylamino)propan-2-ol]",Tibialis organ weight at the end of the study,"[1]; gavage, old rats, placebo 827 ± 34",1034 ± 46 mg
same,Gastrocnemius organ weight at the end of the study,"[1]; gavage, old rats, placebo 2283 ± 78",2914 ± 133 mg
same,Lean body mass (i.e. muscle mass),"[1]; old rats, EchoMRI, FIGS. 7, 8",increased
same,Body weight (change during the treatment period),"[1]; old rats, FIGS. 4, 5",significantly increased
same,Tibialis dry mass,"[1]; old rats, dried at 60° C. for 48 h, placebo 227 ± 9",276 ± 12 mg
same,Tibialis dry mass,"[1]; old rats, placebo 27.89 ± 0.78",27.12 ± 0.46%
same,Tibialis water,"[1]; old rats, placebo 72.1 ± 0.78",72.88 ± 0.46%
same,Soleus organ weight at the end of the study,"[1]; old rats, placebo 181 ± 11",173 ± 9 mg
same,EDL organ weight at the end of the study,"[1]; old rats, placebo 197 ± 9",236 ± 5 mg
same,Lean mass increase compared to baseline,"[1]; senile rats, placebo lost 1.5%",12.7%
same,Alteration in blood pressure,healthy subjects; in vivo,no alteration
same,Gastrocnemius organ weight at the end of the study,[2]; 0.3 mg/kg/d,1420 ± 35 mg
same,Soleus organ weight at the end of the study,[2]; 0.3 mg/kg/d,107 ± 2 mg
same,EDL organ weight at the end of the study,[2]; 0.3 mg/kg/d,124 ± 6 mg
same,Tibialis organ weight at the end of the study,[2]; 0.3 mg/kg/d,526 ± 15 mg
same,EDL percent increase in weight,[2]; 0.3 mg/kg/d,+19.2%
same,Soleus percent increase in weight,[2]; 0.3 mg/kg/d,+10.3%
same,Gastrocnemius organ weight at the end of the study,[2]; 3 mg/kg/d,1492 ± 37 mg
same,Soleus organ weight at the end of the study,[2]; 3 mg/kg/d,103 ± 3 mg
same,EDL organ weight at the end of the study,[2]; 3 mg/kg/d,126 ± 4 mg
same,Tibialis organ weight at the end of the study,[2]; 3 mg/kg/d,535 ± 22 mg
same,EDL percent increase in weight,[2]; 3 mg/kg/d,+21.1%
same,Soleus percent increase in weight,[2]; 3 mg/kg/d,+6.2%
same,Lean body mass (i.e. muscle mass),"[2]; 0.3 and 3 mg/kg/d, EchoMRI, FIG. 2",dose dependently increased
same,Body weight (weight gain during treatment),"[2]; high dose (3 mg/kg/d), FIG. 1, p=0.0002 vs placebo",significantly increased
